Data taken from patent US20260115331A1, “PET IMAGING OF BACTERIAL INFECTION WITH A PET PROBE” (Mayo Foundation for Medical Education and Research, priority 2022, published 2026).

Assay: PET image analysis (SUV) of inflamed tibia in foreign body inflammation rat model
Format: in vivo, rats
Details: each time point up to 120 minutes (FIG. 27)
Description: The PET probe [^68Ga]Ga-H3P2O8 was evaluated in methicillin-resistant S. aureus (MRSA) foreign-body osteomyelitis in the left tibia with a stainless steel Kirschner wire (K-wire) implant in male Wister rats, following a previously established protocol [Ref. 17]. Briefly, a 1 cm incision was made on the medial tibia and the bone exposed. A 1.5 mm hole was drilled, 0.01 mL of arachidonic acid (a sclerosing agent) and 0.05 mL of a suspension containing MRSA DRL-6169 at 10^8 cfu/mL was injected into the bone. A 5 mm threaded stainless-steel K-wire was inserted. The hole was closed with dental gypsum and the site closed. After implantation, the muscle and fascia were closed with 3-0 vicryl using simple interrupted sutures. The skin was closed with sterile wound clips and VetBond. The wound was sprayed with Aluspray and Chew Guard. After 7 days of implantation of wire, the animal was put on iron-deficient diet for 7 days and on the day of imaging, the animals were fasted for 4 hours prior to the injection of the PET probe. [^68Ga]Ga-H3P2O8 (32.81±6.28 MBq, n=18) were injected into the rat model via tail vein injection. The rat model was either a normal rat model or an osteomyelitis foreign body rat model or an inflamed foreign body rat model. PET/CT images were acquired at 15 minutes, 30 minutes, 60 minutes, and 120 minutes post-injection using Siemens Inveon MicroPET/CT Scanner (see FIGS. 17, 18, and Table 2).
To assess the preferential uptake of novel [^68Ga]Ga-H3P2O8 PET probe in infection as compared to inflammation, the same surgery and imaging was performed but omitted the MRSA. […] The probe [^68Ga]Ga-H3P2O8 was also successfully used to detect thigh infection caused by E coli in a mouse model.
To further investigate the selectivity of [^68Ga]Ga-H3P2O8 for imaging infection over inflammation, this novel probe was compared to other PET imaging probes, [^68Ga]Ga-Citrate and [^18F]FDG in an inflammation model. In a side-by-side study, all three probes were used to image inflammation (i.e., an inflamed tibia) in an osteomyelitis foreign body rat model.

Structure (SMILES)	difference in mean SUV between the probes in inflamed tibia
O=C([O-])CC(O)(CC(=O)[O-])C(=O)[O-].[Ga+3] [[^68Ga]Ga-Citrate]	no significant difference
OC[C@H]1OC(O)[C@H]([18F])[C@@H](O)[C@@H]1O (some centres unmarked) [[^18F]FDG, [^18F]Fluorodeoxyglucose]	no significant difference
